# Patent publication US20160310477A1, “CANCER TREATMENTS USING COMBINATIONS OF MEK TYPE 1 AND ERK INHIBITORS” (BIOMED VALLEY DISCOVERIES, INC., priority 2013, published 2016)
# How the values were obtained:
# ERK = settings: Morris et al., 2013; cited from earlier work
# [1] = tested on: MAPK signaling in A375 cells; assay: Western blot of MAPK signaling, cell cycle and apoptosis markers; type: cell-based, human
# [2] = tested on: MAPK signaling in HCT116 cells; assay: Western blot of MAPK signaling markers; type: cell-based, human; settings: HCT116, 4 hours, micromolar concentrations
# Procedure: For Western blot studies, HCT116 cells (5×10^6) were seeded into 10 cm dishes in McCoy's 5A plus 10% FBS. […] Cells were allowed to adhere overnight prior to addition of the indicated amount of test compound (BVD-523) or vehicle control. Cells were treated for either 4 or 24 hours before isolation of whole-cell protein lysates, as specified below. Cells were harvested by trypsinisation, pelleted and snap frozen. Lysates were prepared with RIPA (Radio-Immunoprecipitation Assay) buffer, clarified by centrifugation and quantitated by bicinchoninic acid assay (BCA) assay. 20-50 μg of protein was resolved by SDS-PAGE electrophoresis, blotted onto PVDF membrane and probed using the antibodies detailed in Table 5 (for the 4-hour treatment) and Table 6 (for the 24-hour treatment) below. [table]
smiles,measurement,setting,value
O=C(Nc1ccc2[nH]nc(-c3ccncc3)c2c1)[C@@H]1CCN(CC(=O)N2CCN(c3ccc(-c4ncccn4)cc3)CC2)C1 [SCH772984],autophosphorylation of ERK,ERK,inhibits autophosphorylation of ERK
CC(C)Nc1cc(-c2c[nH]c(C(=O)N[C@H](CO)c3cccc(Cl)c3)c2)c(Cl)cn1 [BVD-523],cyclin-D1 level,[1]; 24 hours of treatment,greatly reduced
same,phosphorylation of ERK-dependent residues (T359/S363) in RSK 1 and 2 proteins,"[1]; A375, 4 hours, micromolar concentrations",reduced
same,Bim-EL level,"[1]; A375, prolonged treatment",increased
same,apoptosis / PARP cleavage,"[1]; A375, prolonged treatment",increased apoptosis was not observed
same,MAPK feedback phosphatase DUSP6 level,"[1]; BRAF mutant cell line, 24 hours of treatment",greatly reduced
same,autophosphorylation of ERK,[1]; FIG. 1 Western blot,allows for the autophosphorylation of ERK
same,concentrations required to induce changes in substrate phosphorylation and effector targets of ERK,"[1]; RAF and RAS mutant cancer cells, Western blot, 4 or 24 h",low micromolar range
same,phosphorylation of ERK-dependent residues (T359/S363) in RSK 1 and 2 proteins,[2],reduced
